From patent publication US7964624B1, “Inhibitors of serine proteases” (priority 2005, dated 2011)

Target: T1, HCV NS3 protease domain (Hepatitis C virus genotype 1b, UniProt Q9WMX2)
T1 construct: The first 181 amino acids of NS3 (residues 1027-1207 of the viral polyprotein); hexa-histidine (C); made in house; host or cells: E. coli BL21/DE3 pLysS
Assay: biochemical
Details: Enzyme Assay 1 (HCV NS3 Protease Domain Peptide Cleavage Assay) activity, apparent Ki class

T1 sequence (Q9WMX2 1027-1207, other chains not shown): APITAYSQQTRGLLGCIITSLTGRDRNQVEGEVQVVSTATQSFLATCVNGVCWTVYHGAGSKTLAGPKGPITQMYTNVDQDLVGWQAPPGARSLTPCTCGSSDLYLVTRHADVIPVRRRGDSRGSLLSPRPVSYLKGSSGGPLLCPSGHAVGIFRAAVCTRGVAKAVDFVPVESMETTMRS

`CCC[C@H](NC(=O)[C@@H]1C[C@]2(CC(c3ccc4c(c3)OCCO4)=NO2)CN1C(=O)[C@@H](NC(=O)O[C@H]1CCOC1)C(C)(C)C)C(=O)C(=O)NC1CC1` [Compound 456] gave a Ki of 100 to 500 nM.

With `CCC[C@H](NC(=O)[C@@H]1C[C@]2(CC(c3cccc(Cl)c3)=NO2)CN1C(=O)[C@@H](NC(=O)OCCc1ccccc1)C(C)(C)C)C(=O)C(=O)NC1CC1` [Compound 463] the Ki was over 500 nM.

`CCC[C@H](NC(=O)[C@@H]1C[C@]2(CC(c3ccc4c(c3)OCO4)=NO2)CN1C(=O)c1ccc[nH]1)C(=O)C(=O)NC1CC1` [Compound 464] showed a Ki of over 500 nM.

`CCC[C@H](NC(=O)[C@@H]1C[C@]2(CC(c3cccc(Cl)c3)=NO2)CN1C(=O)[C@@H](NC(=O)OCc1ccc(C)cc1)C(C)(C)C)C(=O)C(=O)NC1CC1` [Compound 471] showed a Ki of 100 to 500 nM.

`CCC[C@H](NC(=O)[C@@H]1C[C@]2(CC(c3ccco3)=NO2)CN1C(=O)[C@@H](NC(=O)OC1CCOC1)C(C)(C)C)C(=O)C(=O)NC1CC1` (some centres unmarked) [Compound 472] showed a Ki of over 500 nM.

In the case of `CCC[C@H](NC(=O)[C@@H]1C[C@]2(CC(c3cccc(Cl)c3)=NO2)CN1C(=O)[C@@H](NC(=O)C(C)Cn1ccc(C)n1)C(C)(C)C)C(=O)C(=O)NC1CC1` (some centres unmarked) [Compound 474], the Ki is reported as over 500 nM.

`CCC[C@H](NC(=O)[C@@H]1C[C@]2(CC(c3cccc(Cl)c3)=NO2)CN1C(=O)[C@@H](NC(=O)CC(C)(O)C(F)(F)F)C(C)(C)C)C(=O)C(=O)NC1CC1` (some centres unmarked) [Compound 475] was tested, and the Ki was 100 to 500 nM.

`CCC[C@H](NC(=O)[C@@H]1C[C@]2(CC(c3cccc(Cl)c3)=NO2)CN1C(=O)[C@@H](NC(=O)N[C@H](COC)C(C)(C)C)C(C)(C)C)C(=O)C(=O)NC1CC1` [Compound 477] showed a Ki of under 100 nM.

`CCC[C@H](NC(=O)[C@@H]1C[C@]2(CC(c3ccc(Cl)s3)=NO2)CN1C(=O)[C@@H](NC(=O)CC1CCCCC1)C(C)(C)C)C(=O)C(=O)NC1CC1` [Compound 478] was tested, and the Ki was 100 to 500 nM.

For `CCC[C@H](NC(=O)[C@@H]1C[C@]2(CC(c3cccc(C(=O)O)c3)=NO2)CN1C(=O)[C@@H](NC(=O)O[C@H]1CCOC1)C(C)(C)C)C(=O)C(=O)NC1CC1` [Compound 481], the Ki was over 500 nM.

Compound `CCC[C@H](NC(=O)[C@@H]1C[C@]2(CC(c3cccc(Cl)c3)=NO2)CN1C(=O)[C@@H](NC(=O)CCC(=O)O)C(C)(C)C)C(=O)C(=O)NC1CC1` [Compound 484] has a Ki of 100 to 500 nM.

For `CCC[C@H](NC(=O)[C@@H]1C[C@]2(CC(c3cccc(Cl)c3)=NO2)CN1C(=O)[C@@H](NC(=O)CC1CC(=O)c2ccc(OC)cc21)C(C)(C)C)C(=O)C(=O)NC1CC1` (some centres unmarked) [Compound 487], the Ki was 100 to 500 nM.

For `CCC[C@H](NC(=O)[C@@H]1C[C@]2(CC(c3ccc(Cl)c(C)c3)=NO2)CN1C(=O)[C@@H](NC(=O)CC1CCOCC1)C(C)(C)C)C(=O)C(=O)NC1CC1` [Compound 490], the Ki was 100 to 500 nM.

`CCC[C@H](NC(=O)[C@@H]1C[C@]2(CC(c3cccc(Cl)c3)=NO2)CN1C(=O)[C@@H](NC(=O)NC(C)(C)C)C(C)(C)C)C(=O)C(=O)NC1CC1` [Compound 492] was tested, and the Ki was under 100 nM.

With `CCC[C@H](NC(=O)[C@@H]1C[C@]2(CC(c3cc(Cl)c(OC)c(OC)c3)=NO2)CN1C(=O)[C@@H](NC(=O)CC1CCCCC1)C(C)(C)C)C(=O)C(=O)NC1CC1` [Compound 494] the Ki was under 100 nM.

`CCC[C@H](NC(=O)[C@@H]1C[C@]2(CC(c3nn(C)cc3Cl)=NO2)CN1C(=O)[C@@H](NC(=O)CC1CCCCC1)C(C)(C)C)C(=O)C(=O)NC1CC1` [Compound 495] gave a Ki of over 500 nM.

`CCC[C@H](NC(=O)[C@@H]1C[C@]2(CC(c3cccc(Cl)c3)=NO2)CN1C(=O)[C@@H](NC(=O)NCc1cccnc1)C(C)(C)C)C(=O)C(=O)NC1CC1` [Compound 497] gave a Ki of 100 to 500 nM.

Compound `CCC[C@H](NC(=O)[C@@H]1C[C@]2(CC(c3cc(F)cc(C(F)(F)F)c3)=NO2)CN1C(=O)[C@@H](NC(=O)O[C@H]1CCOC1)C(C)(C)C)C(=O)C(=O)NC1CC1` [Compound 498] has a Ki of 100 to 500 nM.

In the case of `CCC[C@H](NC(=O)[C@@H]1C[C@]2(CC(c3cccc(Cl)c3)=NO2)CN1C(=O)[C@@H](NC(=O)[C@H]1CC[C@H](OC)CC1)C(C)(C)C)C(=O)C(=O)NC1CC1` [Compound 503], the Ki is reported as 100 to 500 nM.

With `CCC[C@H](NC(=O)[C@@H]1C[C@]2(CC(c3cccc(Cl)c3)=NO2)CN1C(=O)[C@@H](NC(=O)CCc1cccnc1)C(C)(C)C)C(=O)C(=O)NC1CC1` [Compound 504] the Ki was 100 to 500 nM.

For `CCC[C@H](NC(=O)[C@@H]1C[C@]2(CC(c3cccc(Cl)c3)=NO2)CN1C(=O)[C@@H](NC(=O)CCC1NC(=O)NC1=O)C(C)(C)C)C(=O)C(=O)NC1CC1` (some centres unmarked) [Compound 505], the Ki was 100 to 500 nM.

`CCC[C@H](NC(=O)[C@@H]1C[C@]2(CC(c3cccc(Cl)c3)=NO2)CN1C(=O)[C@@H](NC(=O)Cn1ccc2ncccc21)C(C)(C)C)C(=O)C(=O)NC1CC1` [Compound 506] was tested, and the Ki was over 500 nM.

`CCC[C@H](NC(=O)[C@@H]1C[C@@]2(CC(c3cccc(C(F)(F)F)c3)=NO2)CN1C(=O)[C@@H](NC(=O)O[C@H]1CCOC1)C(C)(C)C)C(=O)C(=O)NC1CC1` [Compound 509] showed a Ki of over 500 nM.

In the case of `CCC[C@H](NC(=O)[C@@H]1C[C@]2(CC(c3ccc([N+](=O)[O-])cc3)=NO2)CN1C(=O)[C@@H](NC(=O)O[C@H]1CCOC1)C(C)(C)C)C(=O)C(=O)NC1CC1` [Compound 511], the Ki is reported as 100 to 500 nM.

In the case of `CCC[C@H](NC(=O)[C@@H]1C[C@]2(CC(c3ccccc3)=NO2)CN1C(=O)OCC1c2ccccc2-c2ccccc21)C(=O)C(=O)NC1CC1` [Compound 514], the Ki is reported as over 500 nM.

Compound `CCC[C@H](NC(=O)[C@@H]1C[C@]2(CC(c3cccc(Cl)c3)=NO2)CN1C(=O)[C@@H](NC(=O)OC1CCCOC1)C(C)(C)C)C(=O)C(=O)NC1CC1` (some centres unmarked) [Compound 515] has a Ki of 100 to 500 nM.

Compound `CCC[C@H](NC(=O)[C@@H]1C[C@]2(CC(c3ccc(OC)cc3OC)=NO2)CN1C(=O)[C@@H](NC(=O)O[C@H]1CCOC1)C(C)(C)C)C(=O)C(=O)NC1CC1` [Compound 516] has a Ki of over 500 nM.

Work on `CCC[C@H](NC(=O)[C@@H]1C[C@]2(CC(c3cccc(Cl)c3)=NO2)CN1C(=O)[C@@H](NC(=O)[C@@H]1CCC(=O)N1Cc1cccc(C)c1)C(C)(C)C)C(=O)C(=O)NC1CC1` [Compound 518] yielded a Ki of under 100 nM.

Compound `CCC[C@H](NC(=O)[C@@H]1C[C@]2(CC(c3cc(C)cc(C)c3)=NO2)CN1C(=O)[C@@H](NC(=O)O[C@H]1CCOC1)C(C)(C)C)C(=O)C(=O)NC1CC1` [Compound 519] has a Ki of 100 to 500 nM.

In the case of `CCC[C@H](NC(=O)[C@@H]1C[C@]2(CC(c3ccccc3)=NO2)CN1C(=O)[C@@H](NC(=O)OCc1ccccc1)C(C)(C)C)C(=O)C(=O)NC1CC1` [Compound 520], the Ki is reported as over 500 nM.

`CCC[C@H](NC(=O)[C@@H]1C[C@]2(CC(c3cccc(Cl)c3)=NO2)CN1C(=O)[C@@H](NC(=O)C1CCOCC1)C(C)(C)C)C(=O)C(=O)NC1CC1` [Compound 523] was tested, and the Ki was 100 to 500 nM.

With `CCC[C@H](NC(=O)[C@@H]1C[C@]2(CC(c3ccc(OC(F)(F)F)cc3)=NO2)CN1C(=O)O[C@H]1CCOC1)C(=O)C(=O)NC1CC1` [Compound 524] the Ki was over 500 nM.

Work on `CCC[C@H](NC(=O)[C@@H]1C[C@]2(CC(c3cccc(OC)c3)=NO2)CN1C(=O)[C@@H](NC(=O)CC1CCOCC1)C(C)(C)C)C(=O)C(=O)NC1CC1` [Compound 525] yielded a Ki of over 500 nM.

Compound `CCC[C@H](NC(=O)[C@@H]1C[C@]2(CC(c3cccc(Cl)c3)=NO2)CN1C(=O)[C@@H](NC(=O)OCc1ccccc1)C(C)(C)C)C(=O)C(=O)NC1CC1` [Compound 526] has a Ki of 100 to 500 nM.

In the case of `CCC[C@H](NC(=O)[C@@H]1C[C@]2(CC(c3ccc4c(c3)OCO4)=NO2)CN1C(=O)[C@@H](NC(=O)O[C@H]1CCOC1)C(C)(C)C)C(=O)C(=O)NC1CC1` [Compound 527], the Ki is reported as 100 to 500 nM.

For `CCC[C@H](NC(=O)[C@@H]1C[C@]2(CC(c3cccc(Cl)c3)=NO2)CN1C(=O)[C@@H](NC(=O)CCn1ncc2ccccc21)C(C)(C)C)C(=O)C(=O)NC1CC1` [Compound 528], the Ki was 100 to 500 nM.

In the case of `CCC[C@H](NC(=O)[C@@H]1C[C@]2(CC(c3ccc(O)cc3)=NO2)CN1C(=O)[C@@H](NC(=O)O[C@H]1CCOC1)C(C)(C)C)C(=O)C(=O)NC1CC1` [Compound 530], the Ki is reported as over 500 nM.

For `CCC[C@H](NC(=O)[C@@H]1C[C@]2(CC(c3cccc(Cl)c3)=NO2)CN1C(=O)[C@@H](NC(=O)CC(C)C)C(C)(C)C)C(=O)C(=O)NC1CC1` [Compound 532], the Ki was over 500 nM.

`CCC[C@H](NC(=O)[C@@H]1C[C@]2(CC(c3ccc(F)cc3)=NO2)CN1C(=O)OCC1c2ccccc2-c2ccccc21)C(=O)C(=O)NC1CC1` [Compound 533] showed a Ki of over 500 nM.

`CCC[C@H](NC(=O)[C@@H]1C[C@]2(CC(C(=O)c3ccccc3)=NO2)CN1C(=O)[C@@H](NC(=O)O[C@H]1CCOC1)C(C)(C)C)C(=O)C(=O)NC1CC1` [Compound 535] showed a Ki of 100 to 500 nM.

`CCC[C@H](NC(=O)[C@@H]1C[C@]2(CC(c3ccc4c(c3)OCO4)=NO2)CN1C(=O)[C@@H](NS(=O)(=O)c1cccc2ccccc12)C(C)(C)C)C(=O)C(=O)NC1CC1` [Compound 536] showed a Ki of over 500 nM.

`CCC[C@H](NC(=O)[C@@H]1C[C@]2(CC(c3cccc(Cl)c3)=NO2)CN1C(=O)[C@@H](NC(=O)C(C)(C#N)Cc1ccccc1)C(C)(C)C)C(=O)C(=O)NC1CC1` (some centres unmarked) [Compound 538] was tested, and the Ki was over 500 nM.

Compound `CCC[C@H](NC(=O)[C@@H]1C[C@]2(CC(c3ccc(F)c(C)c3)=NO2)CN1C(=O)[C@@H](NC(=O)CC1CCOCC1)C(C)(C)C)C(=O)C(=O)NC1CC1` [Compound 539] has a Ki of 100 to 500 nM.

`CC(C)(C)NC(=O)N[C@H](C(=O)N1C[C@@]2(CC(c3cccc(Cl)c3)=NO2)C[C@H]1C(=O)NC(CC1CCC1)C(=O)C(=O)NC1CC1)C(C)(C)C` (some centres unmarked) [Compound 542] gave a Ki of under 100 nM.

`CCC[C@H](NC(=O)[C@@H]1C[C@]2(CC(c3ccc(C(=O)O)cc3)=NO2)CN1C(=O)[C@@H](NC(=O)O[C@H]1CCOC1)C(C)(C)C)C(=O)C(=O)NC1CC1` [Compound 543] gave a Ki of over 500 nM.

In the case of `CCC[C@H](NC(=O)[C@@H]1C[C@]2(CC(c3cccc(Cl)c3)=NO2)CN1C(=O)[C@@H](NC(=O)C(C)Cn1cnc2ccccc21)C(C)(C)C)C(=O)C(=O)NC1CC1` (some centres unmarked) [Compound 544], the Ki is reported as 100 to 500 nM.

With `CCC[C@H](NC(=O)[C@@H]1C[C@]2(CC(c3ccc(F)c(C(F)(F)F)c3)=NO2)CN1C(=O)[C@@H](NC(=O)O[C@H]1CCOC1)C(C)(C)C)C(=O)C(=O)NC1CC1` [Compound 545] the Ki was 100 to 500 nM.
